# Experimental data as given in paper PMC10176470, “Engaging a Non-catalytic Cysteine Residue Drives Potent and Selective Inhibition of Caspase-6” (Journal of the American Chemical Society, 2023).
# Like-named read-outs stand apart in the source and are kept apart here.
# Assays:
# Type in all cases: cell-based
# [1] = target: proteins of HEK293T cells transiently overexpressing caspase-6 (Homo sapiens, UniProt P21796); details: Probe; protein VDAC1 P21796
# [2] = target: T1, proteins of HEK293T cells transiently overexpressing caspase-6 (Homo sapiens, UniProt Q99832); details: protein CCT7 (Q99832)
# T1 sequence (Q99832 1-543): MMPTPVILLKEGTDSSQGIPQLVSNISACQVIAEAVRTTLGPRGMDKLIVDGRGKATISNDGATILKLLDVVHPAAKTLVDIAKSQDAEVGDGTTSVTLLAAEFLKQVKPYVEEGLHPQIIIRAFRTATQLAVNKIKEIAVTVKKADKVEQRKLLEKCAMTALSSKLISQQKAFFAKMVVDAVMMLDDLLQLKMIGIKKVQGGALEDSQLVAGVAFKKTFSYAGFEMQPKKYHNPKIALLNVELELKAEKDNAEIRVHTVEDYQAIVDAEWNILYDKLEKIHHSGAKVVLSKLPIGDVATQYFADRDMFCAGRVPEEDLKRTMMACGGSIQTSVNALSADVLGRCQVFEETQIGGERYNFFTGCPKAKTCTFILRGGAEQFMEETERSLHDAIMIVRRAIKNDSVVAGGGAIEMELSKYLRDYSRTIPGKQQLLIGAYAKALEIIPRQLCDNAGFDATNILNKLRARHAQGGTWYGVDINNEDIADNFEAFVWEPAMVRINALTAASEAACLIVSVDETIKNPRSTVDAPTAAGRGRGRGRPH
# [3] = target: proteins of HEK293T cells transiently overexpressing caspase-6 (Homo sapiens, UniProt Q8TCD1); details: protein C18orf32 (Q8TCD1)
# [4] = target: T2, proteins of HEK293T cells transiently overexpressing caspase-6 (Homo sapiens, UniProt Q9UQ80); details: protein PA2G4 (Q9UQ80)
# T2 sequence (Q9UQ80 1-394): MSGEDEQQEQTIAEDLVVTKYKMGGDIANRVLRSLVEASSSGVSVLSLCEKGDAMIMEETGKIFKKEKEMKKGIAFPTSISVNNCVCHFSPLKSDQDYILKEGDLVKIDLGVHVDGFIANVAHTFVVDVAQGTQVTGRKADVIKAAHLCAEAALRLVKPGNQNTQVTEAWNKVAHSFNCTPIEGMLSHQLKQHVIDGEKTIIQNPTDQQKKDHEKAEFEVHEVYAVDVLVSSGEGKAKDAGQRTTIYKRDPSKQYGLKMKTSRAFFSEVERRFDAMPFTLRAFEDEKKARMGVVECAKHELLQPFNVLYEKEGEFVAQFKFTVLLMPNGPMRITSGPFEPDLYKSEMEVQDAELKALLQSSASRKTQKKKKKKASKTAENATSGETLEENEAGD
# [5] = target: proteins of HEK293T cells transiently overexpressing caspase-6 (Homo sapiens, UniProt P63244); details: exp_ref Probe; protein GNB2L1 (P63244); analysis C6
# [6] = target: proteins of HEK293T cells transiently overexpressing caspase-6 (Homo sapiens, UniProt P46782); details: protein RPS5 (P46782)
# [7] = target: proteins of HEK293T cells transiently overexpressing caspase-6 (Homo sapiens, UniProt P06733); details: protein ENO1 (P06733)
# [8] = target: proteins of HEK293T cells transiently overexpressing caspase-6 (Homo sapiens, UniProt P14625); details: exp_ref Probe; protein HSP90B1 (P14625); analysis C6
# [9] = target: proteins of HEK293T cells transiently overexpressing caspase-6 (Homo sapiens, UniProt Q96AE4); details: Probe; protein FUBP1 Q96AE4
# [10] = target: proteins of HEK293T cells transiently overexpressing caspase-6 (Homo sapiens, UniProt P48643); details: protein CCT5 (P48643)
# [11] = target: proteins of HEK293T cells transiently overexpressing caspase-6 (Homo sapiens, UniProt Q9Y6C9); details: protein MTCH2 (Q9Y6C9); exp_ref Probe; analysis C6
# [12] = target: proteins of HEK293T cells transiently overexpressing caspase-6 (Homo sapiens, UniProt P49189); details: exp_ref Probe; protein ALDH9A1 (P49189); analysis C6
# [13] = target: proteins of HEK293T cells transiently overexpressing caspase-6 (Homo sapiens, UniProt P09211); details: exp_ref Probe; protein GSTP1 (P09211); analysis C6
# [14] = target: proteins of HEK293T cells transiently overexpressing caspase-6 (Homo sapiens, UniProt O43707); details: protein ACTN4 (O43707)
# [15] = target: proteins of HEK293T cells transiently overexpressing caspase-6 (Homo sapiens, UniProt P11021); details: protein HSPA5 (P11021)
# [16] = target: proteins of HEK293T cells transiently overexpressing caspase-6 (Homo sapiens, UniProt P38606); details: exp_ref Probe; protein ATP6V1A (P38606); analysis C6
# [17] = target: proteins of HEK293T cells transiently overexpressing caspase-6 (Homo sapiens, UniProt Q8IWS0); details: exp_ref Probe; protein PHF6 (Q8IWS0); analysis C6
# Chain of proteins of HEK293T cells transiently overexpressing caspase-6 (Homo sapiens, UniProt Q8IWS0) (Q8IWS0 whole entry): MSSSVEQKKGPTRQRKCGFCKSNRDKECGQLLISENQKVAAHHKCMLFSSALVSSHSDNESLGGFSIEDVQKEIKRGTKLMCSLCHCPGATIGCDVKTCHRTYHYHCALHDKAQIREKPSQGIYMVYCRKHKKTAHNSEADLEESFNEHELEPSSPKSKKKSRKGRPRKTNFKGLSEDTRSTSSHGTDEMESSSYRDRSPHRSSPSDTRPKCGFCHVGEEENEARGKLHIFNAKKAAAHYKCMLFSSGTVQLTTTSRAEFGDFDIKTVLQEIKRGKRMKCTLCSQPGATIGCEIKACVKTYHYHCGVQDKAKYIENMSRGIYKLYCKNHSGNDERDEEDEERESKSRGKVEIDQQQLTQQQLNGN
# Chain of proteins of HEK293T cells transiently overexpressing caspase-6 (Homo sapiens, UniProt O43707) (O43707 whole entry): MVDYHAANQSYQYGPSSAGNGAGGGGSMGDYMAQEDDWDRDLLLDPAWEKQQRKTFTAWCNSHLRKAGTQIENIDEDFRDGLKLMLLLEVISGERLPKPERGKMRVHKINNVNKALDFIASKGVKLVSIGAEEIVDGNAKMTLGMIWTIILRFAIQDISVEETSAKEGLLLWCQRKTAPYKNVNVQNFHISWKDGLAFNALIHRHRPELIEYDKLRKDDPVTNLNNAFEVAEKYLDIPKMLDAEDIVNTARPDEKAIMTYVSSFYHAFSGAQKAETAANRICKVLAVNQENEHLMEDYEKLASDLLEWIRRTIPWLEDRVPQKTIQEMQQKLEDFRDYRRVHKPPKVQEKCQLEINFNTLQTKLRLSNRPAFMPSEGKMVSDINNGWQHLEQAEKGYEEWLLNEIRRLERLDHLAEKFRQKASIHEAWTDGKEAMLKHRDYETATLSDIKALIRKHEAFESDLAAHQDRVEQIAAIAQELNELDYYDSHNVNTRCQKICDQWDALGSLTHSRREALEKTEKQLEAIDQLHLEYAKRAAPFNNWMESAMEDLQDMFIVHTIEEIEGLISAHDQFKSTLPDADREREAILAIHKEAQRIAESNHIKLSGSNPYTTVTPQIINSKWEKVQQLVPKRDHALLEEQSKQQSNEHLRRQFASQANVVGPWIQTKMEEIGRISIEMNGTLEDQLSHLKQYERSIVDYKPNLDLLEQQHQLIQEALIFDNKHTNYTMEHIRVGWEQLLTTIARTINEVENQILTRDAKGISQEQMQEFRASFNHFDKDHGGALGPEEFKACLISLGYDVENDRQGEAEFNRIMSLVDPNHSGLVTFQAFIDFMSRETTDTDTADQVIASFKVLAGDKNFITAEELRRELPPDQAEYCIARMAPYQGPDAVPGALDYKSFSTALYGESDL
# Chain of proteins of HEK293T cells transiently overexpressing caspase-6 (Homo sapiens, UniProt Q8TCD1) (Q8TCD1 whole entry): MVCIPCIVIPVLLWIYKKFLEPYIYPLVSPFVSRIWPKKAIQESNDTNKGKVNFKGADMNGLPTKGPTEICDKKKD
# Chain of proteins of HEK293T cells transiently overexpressing caspase-6 (Homo sapiens, UniProt P11021) (P11021 19-654): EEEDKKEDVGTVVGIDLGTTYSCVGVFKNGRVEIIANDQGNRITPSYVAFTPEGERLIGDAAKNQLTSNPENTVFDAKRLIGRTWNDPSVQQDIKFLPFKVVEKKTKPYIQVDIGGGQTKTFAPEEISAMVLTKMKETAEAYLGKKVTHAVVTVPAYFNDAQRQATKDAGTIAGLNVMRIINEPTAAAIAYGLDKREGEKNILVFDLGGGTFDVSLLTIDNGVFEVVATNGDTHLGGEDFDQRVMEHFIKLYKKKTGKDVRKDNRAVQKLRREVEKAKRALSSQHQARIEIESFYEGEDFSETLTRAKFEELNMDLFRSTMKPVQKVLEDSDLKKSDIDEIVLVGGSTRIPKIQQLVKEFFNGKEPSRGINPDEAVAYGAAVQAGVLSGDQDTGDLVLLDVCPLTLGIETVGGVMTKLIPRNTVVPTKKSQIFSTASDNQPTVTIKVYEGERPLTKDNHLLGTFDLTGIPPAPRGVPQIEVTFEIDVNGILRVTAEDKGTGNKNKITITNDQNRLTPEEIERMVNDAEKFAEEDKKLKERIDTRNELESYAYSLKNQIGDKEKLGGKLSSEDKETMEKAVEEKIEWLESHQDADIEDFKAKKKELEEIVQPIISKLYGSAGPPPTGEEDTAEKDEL
# Chain of proteins of HEK293T cells transiently overexpressing caspase-6 (Homo sapiens, UniProt P48643) (P48643 whole entry): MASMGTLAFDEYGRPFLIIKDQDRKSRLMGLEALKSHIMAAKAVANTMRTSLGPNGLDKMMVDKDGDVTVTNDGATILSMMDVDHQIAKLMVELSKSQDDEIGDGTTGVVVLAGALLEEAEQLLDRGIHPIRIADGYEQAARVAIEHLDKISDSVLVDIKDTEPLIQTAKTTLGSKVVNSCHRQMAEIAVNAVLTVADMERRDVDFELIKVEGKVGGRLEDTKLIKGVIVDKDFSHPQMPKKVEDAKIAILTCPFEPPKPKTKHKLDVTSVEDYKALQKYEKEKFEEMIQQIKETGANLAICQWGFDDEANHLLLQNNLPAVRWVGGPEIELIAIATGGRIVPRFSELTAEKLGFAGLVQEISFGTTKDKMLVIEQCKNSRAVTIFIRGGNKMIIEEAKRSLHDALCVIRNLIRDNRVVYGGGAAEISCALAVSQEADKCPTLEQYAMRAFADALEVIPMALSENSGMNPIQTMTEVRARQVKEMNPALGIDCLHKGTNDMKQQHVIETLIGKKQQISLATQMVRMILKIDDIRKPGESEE
# Chain of proteins of HEK293T cells transiently overexpressing caspase-6 (Homo sapiens, UniProt P06733) (P06733 whole entry): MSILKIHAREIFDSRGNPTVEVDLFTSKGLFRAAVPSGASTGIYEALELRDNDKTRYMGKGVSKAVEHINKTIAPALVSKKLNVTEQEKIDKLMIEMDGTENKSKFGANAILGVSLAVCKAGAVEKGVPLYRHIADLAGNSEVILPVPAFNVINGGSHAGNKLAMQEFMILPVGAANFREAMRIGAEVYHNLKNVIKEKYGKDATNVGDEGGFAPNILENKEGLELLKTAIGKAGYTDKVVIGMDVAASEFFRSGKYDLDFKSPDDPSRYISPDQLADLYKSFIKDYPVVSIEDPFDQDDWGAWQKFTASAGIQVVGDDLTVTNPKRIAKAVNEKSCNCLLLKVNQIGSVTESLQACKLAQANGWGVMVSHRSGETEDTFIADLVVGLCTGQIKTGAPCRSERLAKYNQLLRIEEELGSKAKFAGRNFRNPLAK
# Chain of proteins of HEK293T cells transiently overexpressing caspase-6 (Homo sapiens, UniProt P09211) (P09211 whole entry): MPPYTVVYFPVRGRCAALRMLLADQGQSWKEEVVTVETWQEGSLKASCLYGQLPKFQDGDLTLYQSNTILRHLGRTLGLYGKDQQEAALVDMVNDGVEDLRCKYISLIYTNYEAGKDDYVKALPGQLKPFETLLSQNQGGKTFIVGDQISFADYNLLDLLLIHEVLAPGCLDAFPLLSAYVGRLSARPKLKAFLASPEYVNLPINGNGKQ
# Chain of proteins of HEK293T cells transiently overexpressing caspase-6 (Homo sapiens, UniProt P14625) (P14625 22-803): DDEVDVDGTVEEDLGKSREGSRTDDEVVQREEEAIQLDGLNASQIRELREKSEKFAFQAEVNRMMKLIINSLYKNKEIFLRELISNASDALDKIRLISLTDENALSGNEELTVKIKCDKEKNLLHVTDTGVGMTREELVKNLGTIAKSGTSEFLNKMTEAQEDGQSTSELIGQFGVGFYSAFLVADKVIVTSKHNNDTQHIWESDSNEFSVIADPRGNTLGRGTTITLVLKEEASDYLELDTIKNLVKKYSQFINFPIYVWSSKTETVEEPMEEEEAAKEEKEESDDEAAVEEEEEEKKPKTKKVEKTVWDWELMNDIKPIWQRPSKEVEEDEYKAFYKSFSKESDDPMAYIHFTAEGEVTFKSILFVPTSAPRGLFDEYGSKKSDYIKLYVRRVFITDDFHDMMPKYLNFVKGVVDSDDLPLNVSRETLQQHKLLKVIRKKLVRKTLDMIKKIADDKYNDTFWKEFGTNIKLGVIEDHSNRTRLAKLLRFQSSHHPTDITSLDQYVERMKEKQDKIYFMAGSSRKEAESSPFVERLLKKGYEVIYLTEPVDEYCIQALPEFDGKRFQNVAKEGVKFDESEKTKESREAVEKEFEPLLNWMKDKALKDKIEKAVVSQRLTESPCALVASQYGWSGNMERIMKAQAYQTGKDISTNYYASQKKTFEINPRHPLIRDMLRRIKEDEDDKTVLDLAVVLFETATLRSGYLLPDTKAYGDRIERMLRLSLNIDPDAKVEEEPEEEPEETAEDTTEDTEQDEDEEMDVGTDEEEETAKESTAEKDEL
# Chain of proteins of HEK293T cells transiently overexpressing caspase-6 (Homo sapiens, UniProt P38606) (P38606 whole entry): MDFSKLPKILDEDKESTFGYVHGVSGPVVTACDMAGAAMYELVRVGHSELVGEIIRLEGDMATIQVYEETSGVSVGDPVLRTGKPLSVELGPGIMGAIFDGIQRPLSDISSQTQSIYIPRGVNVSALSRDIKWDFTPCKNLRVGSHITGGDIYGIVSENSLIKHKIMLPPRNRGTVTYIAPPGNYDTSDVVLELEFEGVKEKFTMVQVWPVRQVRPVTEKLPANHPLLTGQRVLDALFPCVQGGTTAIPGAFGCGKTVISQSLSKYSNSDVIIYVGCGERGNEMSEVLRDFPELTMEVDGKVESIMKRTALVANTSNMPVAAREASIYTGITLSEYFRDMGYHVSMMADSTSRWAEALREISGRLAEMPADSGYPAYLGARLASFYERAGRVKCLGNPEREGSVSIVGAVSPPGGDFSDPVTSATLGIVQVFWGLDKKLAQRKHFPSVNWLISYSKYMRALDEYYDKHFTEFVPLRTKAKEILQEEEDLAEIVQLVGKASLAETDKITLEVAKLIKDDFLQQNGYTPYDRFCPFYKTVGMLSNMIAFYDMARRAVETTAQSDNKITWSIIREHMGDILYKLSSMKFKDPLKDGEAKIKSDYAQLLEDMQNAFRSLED
# Chain of proteins of HEK293T cells transiently overexpressing caspase-6 (Homo sapiens, UniProt Q9Y6C9) (Q9Y6C9 whole entry): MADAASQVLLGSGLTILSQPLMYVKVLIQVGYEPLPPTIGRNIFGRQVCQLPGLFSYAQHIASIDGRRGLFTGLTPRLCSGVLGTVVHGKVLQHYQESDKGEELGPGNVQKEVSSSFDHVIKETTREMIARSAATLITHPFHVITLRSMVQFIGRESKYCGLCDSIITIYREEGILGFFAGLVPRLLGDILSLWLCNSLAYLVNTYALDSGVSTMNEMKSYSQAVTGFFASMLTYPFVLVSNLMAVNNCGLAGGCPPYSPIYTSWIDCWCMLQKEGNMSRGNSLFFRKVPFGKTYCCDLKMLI
structure (smiles),measurement,setting,value
C#CCOc1ccc([C@@H]2C[C@@H](C(=O)Nc3ccc(OC(F)(F)F)cc3)CN(S(=O)(=O)C=C)C2)cc1 (relative stereo) [13-t],enrich.exp.med,[1],-1.18
same,enrich.exp.med,"[2]; exp_ref Probe, analysis C6",0.5798
same,enrich.exp.med.lin,[2],1.495
same,enrich.exp.med.log2,[2],0.5798
same,enrich.exp.med.lin,[3],5.403
same,enrich.exp.med.log2,[3],2.434
same,enrich.exp.med.lin,"[3]; Expt Probe, analysis C6",5.403
same,enrich.exp.med.log2,"[3]; Expt Probe, analysis C6",2.434
same,enrich.exp.med,"[3]; exp_ref Probe, analysis C6",2.434
same,enrich.exp.med.lin,[4],2.618
same,enrich.exp.med.log2,[4],1.389
same,enrich.exp.med,"[4]; exp_ref Probe, analysis C6",1.389
same,enrich.exp.med,[5],0.2005
same,enrich.exp.med.lin,[6],3.054
same,enrich.exp.med.log2,[6],1.611
same,enrich.exp.med,"[6]; exp_ref Probe, analysis C6",1.611
same,enrich.exp.med,"[7]; exp_ref Probe, analysis C6",0.5104
same,enrich.exp.med.lin,[7],1.424
same,enrich.exp.med.log2,[7],0.5104
same,enrich.exp.med,[8],0.4413
same,enrich.exp.med,[9],-1.073
same,enrich.exp.med,"[10]; exp_ref Probe, analysis C6",0.7352
same,enrich.exp.med.lin,[10],1.665
same,enrich.exp.med.log2,[10],0.7352
same,enrich.exp.med,[11],1.32
same,enrich.exp.med,[12],0.2139
same,enrich.exp.med,[13],0.03311
same,enrich.exp.med,"[14]; exp_ref Probe, analysis C6",0.6607
same,enrich.exp.med.lin,[14],1.581
same,enrich.exp.med.log2,[14],0.6607
same,enrich.exp.med,"[15]; exp_ref Probe, analysis C6",0.9475
same,enrich.exp.med.lin,[15],1.929
same,enrich.exp.med.log2,[15],0.9475
same,enrich.exp.med,[16],0.7344
same,enrich.exp.med,[17],1.065
